# Patent US9687479B2, “Multisubstituted aromatic compounds as serine protease inhibitors” (VERSEON CORPORATION, priority 2013, dated 2017)
# Key:
# Human KLKB1 = Human KLKB1 (Homo sapiens (Human), UniProt P03952); experiment: KLKB1 kallikrein activity inhibition assay (chromogenic substrate S-2302); assay type: biochemical
# Method in brief: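 Enzyme at a final 3 nM was assayed in 0.05 M Tris pH 7.4, 0.01 M NaCl and 0.2% PEG-8000 at room temperature, with compounds as ten-point threefold dilutions.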
# Human thrombin = Human thrombin (Homo sapiens (Human), UniProt P00734); experiment: Thrombin protease activity inhibition assay (chromogenic substrate S-2238); assay type: biochemical; settings: 3 nM thrombin, 125 μM S-2238, 10 min pre-incubation, RT
# Method in brief: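 Thrombin at 3 nM final in 0.05 M Tris pH 7.4, 0.015 M NaCl, 0.01% PEG-8000, at room temperature; compounds as ten-point three-fold dilutions.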
# Human KLKB1, sequence (P03952 391-638 limits assumed): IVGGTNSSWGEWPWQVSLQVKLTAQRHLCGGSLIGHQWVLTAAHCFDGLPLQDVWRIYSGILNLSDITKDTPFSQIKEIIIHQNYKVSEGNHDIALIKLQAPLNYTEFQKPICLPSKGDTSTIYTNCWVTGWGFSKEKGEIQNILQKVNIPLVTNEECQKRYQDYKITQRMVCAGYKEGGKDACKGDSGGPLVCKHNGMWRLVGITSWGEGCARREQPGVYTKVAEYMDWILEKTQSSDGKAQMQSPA
# Human KLKB1, sequence (P03952 20-390 partner limits assumed): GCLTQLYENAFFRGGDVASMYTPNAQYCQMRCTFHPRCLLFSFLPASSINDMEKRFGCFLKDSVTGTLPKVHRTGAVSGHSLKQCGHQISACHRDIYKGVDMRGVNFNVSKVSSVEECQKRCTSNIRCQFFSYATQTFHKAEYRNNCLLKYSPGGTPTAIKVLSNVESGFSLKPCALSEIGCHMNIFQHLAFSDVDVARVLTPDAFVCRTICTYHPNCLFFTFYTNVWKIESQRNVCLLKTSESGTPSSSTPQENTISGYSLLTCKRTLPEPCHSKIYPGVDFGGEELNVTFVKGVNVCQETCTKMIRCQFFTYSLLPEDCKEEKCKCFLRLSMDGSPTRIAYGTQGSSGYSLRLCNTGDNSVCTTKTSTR
IC50 (Human KLKB1; Table B) [nM],IC50 (Human thrombin) [nM],Compound,IC50 (Human KLKB1; Table C) [nM]
100 to 1000,< 100,"O=C(c1ccsc1)n1nc(-c2cccn(Cc3ccoc3)c2=O)cc1NCc1ccc(Cl)s1 [Cmpd 196, 3-(5-[(5-chlorothiophen-2-yl)methyl]amino-1-[(thiophen-3-yl)carbonyl]-1H-pyrazol-3-yl)-1-(furan-3-ylmethyl)-1,2-dihydropyridin-2-one]",
> 100000,1000 to 10000,"O=c1c(-c2cc(NCc3ccc(Cl)s3)[nH]n2)cccn1Cc1ccncc1 [Cmpd 229, 3-(5-[(5-chlorothiophen-2-yl)methyl]amino-1H-pyrazol-3-yl)-1-(pyridin-4-ylmethyl)-1,2-dihydropyridin-2-one]",
1000 to 10000,< 100,"COCC(C)(C)C(=O)n1nc(-c2cccn(Cc3cccnn3)c2=O)cc1NCc1ccc(Cl)s1 [Cmpd 100, 3-(5-[(5-chlorothiophen-2-yl)methyl]amino-1-(3-methoxy-2,2-dimethylpropanoyl)-1H-pyrazol-3-yl)-1-(pyridazin-3-ylmethyl)-1,2-dihydropyridin-2-one]",
1000 to 10000,< 100,"COc1ccc(C(=O)n2nc(-c3cccn(Cc4ccccn4)c3=O)cc2NCc2ccc(Cl)s2)c(OC)c1 [Cmpd 125, 3-(5-[(5-chlorothiophen-2-yl)methyl]amino-1-[(2,4-dimethoxyphenyl)carbonyl]-1H-pyrazol-3-yl)-1-(pyridin-2-ylmethyl)-1,2-dihydropyridin-2-one]",
10000 to 100000,< 100,"COCCn1cccc(-c2cc(NCc3ccc(Cl)s3)n(C(=O)C(C)(C)CO)n2)c1=O [Cmpd 92, 3-(5-[(5-chlorothiophen-2-yl)methyl]amino-1-(3-hydroxy-2,2-dimethylpropanoyl)-1H-pyrazol-3-yl)-1-(2-methoxyethyl)-1,2-dihydropyridin-2-one]",
10000 to 100000,< 100,"O=C(c1ccoc1)n1nc(-c2cccn(Cc3ccsc3)c2=O)cc1NCc1ccc(Cl)s1 [Cmpd 179, 3-(5-[(5-chlorothiophen-2-yl)methyl]amino-1-[(furan-3-yl)carbonyl]-1H-pyrazol-3-yl)-1-(thiophen-3-ylmethyl)-1,2-dihydropyridin-2-one]",
100 to 1000,< 100,"O=C(c1ccsc1)n1nc(-c2cccn(Cc3ccccc3)c2=O)cc1NCc1ccc(Cl)s1 [Cmpd 52, 1-benzyl-3-(5-[(5-chlorothiophen-2-yl)methyl]amino-1-[(thiophen-3-yl)carbonyl]-1H-pyrazol-3-yl)-1,2-dihydropyridin-2-one]",
100 to 1000,< 100,"O=C(c1ccsc1)n1nc(-c2cccn(Cc3ncccn3)c2=O)cc1NCc1ccc(Cl)s1 [Cmpd 201, 3-(5-[(5-chlorothiophen-2-yl)methyl]amino-1-[(thiophen-3-yl)carbonyl]-1H-pyrazol-3-yl)-1-(pyrimidin-2-ylmethyl)-1,2-dihydropyridin-2-one]",
100 to 1000,< 100,"O=C(c1ccc(N2CCOCC2)cc1)n1nc(-c2cccn(CCN3CCOCC3)c2=O)cc1NCc1ccc(Cl)s1 [Cmpd 218, 3-(5-[(5-chlorothiophen-2-yl)methyl]amino-1-[4-(morpholin-4-yl)phenyl]carbonyl-1H-pyrazol-3-yl)-1-[2-(morpholin-4-yl)ethyl]-1,2-dihydropyridin-2-one]",
10000 to 100000,< 100,"COCC(C)(C)C(=O)n1nc(-c2cccn(Cc3cccnc3)c2=O)cc1NCc1ccc(Cl)s1 [Cmpd 102, 3-(5-[(5-chlorothiophen-2-yl)methyl]amino-1-(3-methoxy-2,2-dimethylpropanoyl)-1H-pyrazol-3-yl)-1-(pyridin-3-ylmethyl)-1,2-dihydropyridin-2-one]",
1000 to 10000,< 100,"COCCn1cccc(-c2cc(NCc3ccc(Cl)s3)n(C(=O)c3cccs3)n2)c1=O [Cmpd 182, 3-(5-[(5-chlorothiophen-2-yl)methyl]amino-1-[(thiophen-2-yl)carbonyl]-1H-pyrazol-3-yl)-1-(2-methoxyethyl)-1,2-dihydropyridin-2-one]",
1000 to 10000,< 100,"COCC(C)(C)C(=O)n1nc(-c2cccn(Cc3ncccn3)c2=O)cc1NCc1ccc(Cl)s1 [Cmpd 104, 3-(5-[(5-chlorothiophen-2-yl)methyl]amino-1-(3-methoxy-2,2-dimethylpropanoyl)-1H-pyrazol-3-yl)-1-(pyrimidin-2-ylmethyl)-1,2-dihydropyridin-2-one]",
100 to 1000,< 100,"O=C(c1ccsc1)n1nc(-c2cccn(Cc3ccccn3)c2=O)cc1NCc1ccc(Cl)s1 [Cmpd 198, 3-(5-[(5-chlorothiophen-2-yl)methyl]amino-1-[(thiophen-3-yl)carbonyl]-1H-pyrazol-3-yl)-1-(pyridin-2-ylmethyl)-1,2-dihydropyridin-2-one]",
1000 to 10000,< 100,"COCCn1cccc(-c2cc(NCc3ccc(Cl)s3)n(C(=O)c3ccc(OC)cc3OC)n2)c1=O [Cmpd 122, 3-(5-[(5-chlorothiophen-2-yl)methyl]amino-1-[(2,4-dimethoxyphenyl)carbonyl]-1H-pyrazol-3-yl)-1-(2-methoxyethyl)-1,2-dihydropyridin-2-one]",
10000 to 100000,< 100,"COc1ccc(C(=O)n2nc(-c3cccn(Cc4ccccc4)c3=O)cc2NCc2ccc(Cl)s2)c(OC)c1 [Cmpd 46, 1-benzyl-3-(5-[(5-chlorothiophen-2-yl)methyl]amino-1-[(2,4-dimethoxyphenyl)carbonyl]-1H-pyrazol-3-yl)-1,2-dihydropyridin-2-one]",
100 to 1000,< 100,"O=C(c1ccccc1Cl)n1nc(-c2cccn(Cc3ccco3)c2=O)cc1NCc1ccc(Cl)s1 [Cmpd 243, 3-1-[(2-chlorophenyl)carbonyl]-5-[(5-chlorothiophen-2-yl)methyl]amino-1H-pyrazol-3-yl-1-(furan-2-ylmethyl)-1,2-dihydropyridin-2-one]",
1000 to 10000,< 100,"O=C(c1cccc2c1OCCO2)n1nc(-c2cccn(Cc3ncccn3)c2=O)cc1NCc1ccc(Cl)s1 [Cmpd 116, 3-(5-[(5-chlorothiophen-2-yl)methyl]amino-1-[(2,3-dihydro-1,4-benzodioxin-5-yl)carbonyl]-1H-pyrazol-3-yl)-1-(pyrimidin-2-ylmethyl)-1,2-dihydropyridin-2-one]",
10000 to 100000,10000 to 100000,"O=c1c(-c2cc(NCc3ccc(Cl)s3)n[nH]2)cccn1CCc1ccccn1 [Cmpd 235, 3-(5-[(5-chlorothiophen-2-yl)methyl]amino-1H-pyrazol-3-yl)-1-[2-(pyridin-2-yl)ethyl]-1,2-dihydropyridin-2-one]",
100 to 1000,< 100,"O=C(c1ccc(N2CCOCC2)cc1)n1nc(-c2cccn(Cc3ccncc3)c2=O)cc1NCc1ccc(Cl)s1 [Cmpd 214, 3-(5-[(5-chlorothiophen-2-yl)methyl]amino-1-[4-(morpholin-4-yl)phenyl]carbonyl-1H-pyrazol-3-yl)-1-(pyridin-4-ylmethyl)-1,2-dihydropyridin-2-one]",
100 to 1000,< 100,"COCCn1cccc(-c2cc(NCc3ccc(Cl)s3)n(C(=O)c3ccsc3)n2)c1=O [Cmpd 194, 3-(5-[(5-chlorothiophen-2-yl)methyl]amino-1-[(thiophen-3-yl)carbonyl]-1H-pyrazol-3-yl)-1-(2-methoxyethyl)-1,2-dihydropyridin-2-one]",
1000 to 10000,< 100,"COCCn1cccc(-c2cc(NCc3ccc(Cl)s3)n(C(=O)c3ccccc3)n2)c1=O [Cmpd 62, 3-(1-benzoyl-5-[(5-chlorothiophen-2-yl)methyl]amino-1H-pyrazol-3-yl)-1-(2-methoxyethyl)-1,2-dihydropyridin-2-one]",
,,O=C(c1ccoc1)n1nc(-c2ccccn2)nc1NCc1ccc(F)cc1 [Cmpd 371],1000 to 10000
,,COc1ccc(CNc2nc(-c3cccnc3)nn2C(=O)CCc2ccccc2)cc1 [Cmpd 329],> 100000

Compound,IC50 (Human KLKB1; Table B) [nM],IC50 (Human thrombin) [nM],IC50 (Human KLKB1; Table C) [nM]
"COCC(C)(C)C(=O)n1nc(-c2cccn(Cc3cccs3)c2=O)cc1NCc1ccc(Cl)s1 [Cmpd 105, 3-(5-[(5-chlorothiophen-2-yl)methyl]amino-1-(3-methoxy-2,2-dimethylpropanoyl)-1H-pyrazol-3-yl)-1-(thiophen-2-ylmethyl)-1,2-dihydropyridin-2-one]",> 100000,< 100,
"COCC(C)(C)C(=O)n1nc(-c2cccn(Cc3ccco3)c2=O)cc1NCc1ccc(Cl)s1 [Cmpd 98, 3-(5-[(5-chlorothiophen-2-yl)methyl]amino-1-(3-methoxy-2,2-dimethylpropanoyl)-1H-pyrazol-3-yl)-1-(furan-2-ylmethyl)-1,2-dihydropyridin-2-one]",> 100000,< 100,
"Cn1cccc(-c2cc(NCc3ccc(Cl)s3)n(C(=O)c3ccccc3)n2)c1=O [Cmpd 73, 3-(1-benzoyl-5-[(5-chlorothiophen-2-yl)methyl]amino-1H-pyrazol-3-yl)-1-methyl-1,2-dihydropyridin-2-one]",> 100000,< 100,
"O=C(c1cccc2c1OCCO2)n1nc(-c2cccn(Cc3cccs3)c2=O)cc1NCc1ccc(Cl)s1 [Cmpd 117, 3-(5-[(5-chlorothiophen-2-yl)methyl]amino-1-[(2,3-dihydro-1,4-benzodioxin-5-yl)carbonyl]-1H-pyrazol-3-yl)-1-(thiophen-2-ylmethyl)-1,2-dihydropyridin-2-one]",> 100000,< 100,
"COCC(C)(C)C(=O)n1nc(-c2cccn(Cc3ccsc3)c2=O)cc1NCc1ccc(Cl)s1 [Cmpd 106, 3-(5-[(5-chlorothiophen-2-yl)methyl]amino-1-(3-methoxy-2,2-dimethylpropanoyl)-1H-pyrazol-3-yl)-1-(thiophen-3-ylmethyl)-1,2-dihydropyridin-2-one]",> 100000,< 100,
"O=C(c1ccc(N2CCOCC2)cc1)n1nc(-c2cccn(Cc3ccccc3)c2=O)cc1NCc1ccc(Cl)s1 [Cmpd 53, 1-benzyl-3-(5-[(5-chlorothiophen-2-yl)methyl]amino-1-[4-(morpholin-4-yl)phenyl]carbonyl-1H-pyrazol-3-yl)-1,2-dihydropyridin-2-one]",> 100000,< 100,
